Patent publication US6875759B1, “Substituted guanidines and the use thereof” (Kadmus Pharmaceuticals, priority 1999, dated 2005)
pEC50: −log10 of the molar value. “Also recorded” adds a separate entry of the source. Read-outs that look alike come from different tables or passages of the source.

Assays:
[1] = test system: hormone-independent prostate cancer cell line DU145; test: In vitro cytotoxicity, MTS (CellTiter 96 Aqueous Proliferation Assay), prostate cancer cells; type: cell-based, human
Protocol: FIG. 1 is a graph which compares the effects of the compound of Example 8 on normal human endothelial cells (AH-9) and human prostate cancer cells (DU145). Cells were exposed to the compound for seven days at the concentrations indicated. Cytotoxicity was assessed using the MTS assay.
(§1) In these experiments, cells were seeded at 400 cells per well 24 hours prior to addition of the test compound. Cells were grown at 37° C. in a humidified atmosphere of 95% air, 5% CO2 for 7 days with daily media changes. Cytotoxicity was assessed using the CellTiter 96 Aqueous Proliferation Assay (Promega, Madison, Wis.).
In a separate experiment (FIG. 1), normal human endothelial cells (AH-9) and human prostate cancer cells (DU145) were exposed to increasing concentrations of the compound of Example 8 for seven days.

[2] = test system: breast cancer cell line HS578T; test: In vitro cytotoxicity, MTS assay, breast cancer cells; type: cell-based, human; conditions: 7 days exposure, dose causing death to 50% of cells, read-out: Cell Survival ED 50 Breast
Protocol: as §1

[3] = test system: human prostate (DU14) cancer cells; type: in vivo; conditions: daily i.p. for five days
Excerpt: FIG. 2A is a bar graph which depicts the effect of the compound of Example 8 (1-[N,N′-di-p-tolyl)amidino]-4-(trans-1′-cinnamyl)piperizine) on human prostate cancer in BDF/1 mice using the sub-renal capsule assay.
(§2) Human cancer cells can be grown in the sub-renal capsule of immuno-competent mice where, for a limited period of time, they escape detection by the mouse's immune system. Thus, the sub-renal capsule assay provides a convenient system to study the effect of drugs on the growth of tumor cells in vivo (Bogden, A. E., et al., Exp. Cell Biol. 47:281 (1979)). Briefly, female BDF mice weighing 18-20g were anesthetized, the left kidney exteriorized and a small nick was made in the kidney capsule for implantation of tumor cells. Approximately 1×10^6 human prostate (DU14) or pancreatic cancer (HS766T) cells were prepared as a fibrinogen-jelled pellet (Stratton, J. A., et al., Gynecol. Oncol. 19:336 (1984); Stratton, J. A., et al., Gynecol. Oncol. 30:416 (1988)) and implanted beneath the renal capsule. […] One day after the final injection, the animals were killed and the tumor volume was measured. Tumor growth was determined by subtracting the initial size of the implant from the size of the implant size following treatment (Stratton, J. A., et al., Gynecol Oncol. 19:336 (1984); Stratton, J. A., et al., Gynecol. Oncol. 30:416 (1988)).

[4] = test system: human pancreatic cancer (HS766T) cells; type: in vivo; conditions: daily i.p. for five days
Excerpt: FIG. 2B is a bar graph which depicts the effect of the compound of Example 8 on human pancreatic cancer in BDF/1 mice using the sub-renal capsule assay.
as §2

[5] = test system: DU145 prostate carcinoma xenografts; test: Anti-tumor activity in athymic mice bearing DU145 prostate carcinoma; type: in vivo, mouse; conditions: male nude mice; 12.5 mg/kg/d i.p. daily for two weeks; FIG. 3; 12.5 mg/kg/day
Protocol: FIG. 3 is a graph showing the effect of the compound of Example 8, at a dose of zero mg/kg (filled circles) and at a dose of 12.5 mg/kg (open circles), on human prostate cancer xenographs in BALB/C/NU mice.
DU145 tumor cells were injected subcutaneously into the flank of male nude mice (day 0). Palpable tumors develop within 14 days at which time the animals were treated for two weeks with daily intraperitoneal injections of either the compound of Example 8 or the control vehicle. Tumors were measured every two days and volume of tumor was calculated using the formula: Tumor volume=length×[…] At the end of the study, tumors in control mice had nearly tripled in size. […] Mechanism of Action

[6] = test system: human breast (HS578-T) cancer cells; test: Mitochondrial membrane depolarization, JC-1 flow cytometry, breast cancer cells; type: cell-based; conditions: 25 μM, five hours following drug exposure
Protocol: FIGS. 5A-5C illustrate the effects of the compound of Example 8 on human breast cancer cells (HS578-T). Mitochondrial membrane depolarization was assessed by flow cytometry as measured by the fluorescence of cation, JC-1. Cells were exposed to 25 μM of the compound and fluorescence measured at: 0 hours (FIG. 5A), 2 hours (FIG. 5B) and 5 hours (FIG. 5C).
Mitochondrial membrane depolarization is an early event in apoptosis. […] These early changes in mitochondrial function can be detected using a fluorescent cation, JC-1, that emits a red color when sequestered in the mitochondria of healthy cells, or a green color when localized to the cytoplasm.
Human breast (HS578-T) and prostate (DU145) cancer cells were exposed to 25 μM of the compound of Example 8 for varying lengths of times. Both cell lines lost the capacity to sequester JC-1 in the mitochondrial compartment as indicated by a time-dependent increase in green vs. red fluorescence (FIGS. 5A-5F). In an attempt to better quantitate the results of these experiments, the scans were divided into quadrants. At time 0, greater than 90% of the dye was localized in the mitochondria in both breast and prostate cancer cells. By five hours following drug exposure, the mitochondria from the prostate and breast cells contained only 33% and 22% of the dye, respectively.

caspase-3 (CPP-32) = test: Caspase-3 activation, western blot of cytosolic fractions; type: cell-based, human; conditions: breast cancer cells (HS578-T); 25 μM; 0-240 minutes
Protocol: FIG. 6 is an immunoblot illustrating the activation of caspase 3 in human breast cancer cells (HS578-T) exposed to 25 μM of the compound of Example 8. Cells were exposed to the compound for 0, 30, 60, 90, 150, and 240 minutes of treatment with peak activity occurring 90 minutes after drug addition.
When cells are induced to undergo apoptosis the cell death effector, caspase-3 (CPP-32), is cleaved and activated by proteolytic enzymes.

[7] = Mouse formalin test pain model, late phase; type: in vivo
Protocol: The formalin test was conducted using standard procedures (Hunskaar et al., J. Neurosci. Meth. 14:69-76 (1985). Mice (male CF-1, 20-25 g) were placed in Plexiglass jars for at least 1 hr to accommodate to the environment
The animals received either test drug at 5-50 mg/kg p.o. or the appropriate volume of vehicle (normal saline). Thirty minutes after p.o. dosing mice were injected with formalin (20 μl of 2.5% formaldehyde solution in saline) into the dorsal surface of the right hind paw.
All experiments were done in a blinded manner. The late phase of the formalin response was measured as licking/biting from 10-50 minutes after formalin injection. Differences between groups were analyzed by one-way analysis of variance (ANOVA), A P value ≦0.05 was considered significant. Reduction in the time spent licking/biting in the late phase of the formalin response is considered an indication of a reduction in chronic pain.

Cc1ccc(N=C(Nc2ccc(C)cc2)N2CCN(C/C=C/c3ccccc3)CC2)cc1 [Example 8, 1-[(N,N′-Di-p-tolyl)amidino]-(trans-1′-cinnamyl)piperizine]
pEC50 ([1]; 7 days exposure, MTS, dose causing death to 50% of cells, read-out: Cell Survival ED 50 Prostate): 5.89 | pEC50 ([1]; separate experiment (FIG. 1), seven days, read-out: EC50 cytotoxic activity): 5.47 | pEC50 [2]: 5.64 | inhibition of tumor growth ([3]; prostate cancer cell line in mouse sub-renal capsule): greater than 95% | effect on tumor growth (in words) ([3]; prostate implant, FIG. 2A): dose-dependent and highly significant inhibition of tumor growth | inhibition of tumor growth ([4]; pancreatic cancer cell line in mouse sub-renal capsule): greater than 95% | effect on tumor growth (in words) ([4]; pancreatic implant, FIG. 2B): dose-dependent and highly significant inhibition of tumor growth | tumor growth in xenograft (in words) [5]: active; also recorded: failed to grow | JC-1 dye contained in mitochondria [6]: 22% | processed (activated) caspase-3 (in words) (caspase-3 (CPP-32)): time-dependent increase in processed caspase-3 | late phase pain versus control vehicle (post-hoc Newman-Kuels test) ([7]; 30 mg/kg orally): different from control vehicle at P<0.05 | late phase pain versus control vehicle (post-hoc Newman-Kuels test) ([7]; 50 mg/kg orally): different from control vehicle at P<0.05 | effect on general behavior of the animals ([7]; at the doses effective in the formalin test, p.o.): did not affect the general behavior | time spent licking, late phase of formalin response (in words) ([7]; oral administration, 5-50 mg/kg, male CF-1 mice): dose-dependent reduction in the time spent licking
